Values of other authors as cited in patent US6552014B2, “Methods of inhibiting platelet activation with selective serotonin reuptake inhibitors” (HeartDrug Research, L.L.C., priority 1999, dated 2003).
Structures can show the parent of a compound that is named as a salt.

Experiments:
Details in all cases: cited from earlier work
[1] = tested on: serotonin 5-HT3 receptors
[2] = tested on: central 2 alpha-adrenergic autoreceptors, and heteroreceptors
[3] = tested on: serotonin 5-HT2 receptor

| SMILES | antagonism of serotonin 5-HT3 receptors, in words [1] | antagonism of central 2 alpha-adrenergic autoreceptors and heteroreceptors, in words [2] | antagonism of serotonin 5-HT2 receptor, in words [3] |
| --- | --- | --- | --- |
| CN1CCN2c3ncccc3Cc3ccccc3C2C1 (stereo not shown) [Mirtazapine] | antagonist | potent antagonist | antagonist |
| CCc1nn(CCCN2CCN(c3cccc(Cl)c3)CC2)c(=O)n1CCOc1ccccc1 [Nefazodone, 2-[3-[4-(3-chlorophenyl)-1-piperazinyl]propyl]-5-ether-2,4-dihydro-4-(2-phenoxyethyl)-3H-1,2,4-triazol-3-one monohydrochloride] |  |  | potent serotonin 5-HT2 receptor antagonist |
